# Residues, ends and D or L forms follow the SMILES beside them.
# Tests used:
# E. coli ATCC 25922 = format: cell-based, Escherichia coli; conditions: ATCC 25922, 18 h
# Excerpt: (§1) E. coli ML35p, Listeria monocytogenes EGD, methicillin-resistant Staphylococcus aureus (MRSA) ATCC 33591 were kindly provided by Prof. Robert Lehrer (University of California, Los Angeles, CA, USA); E. coli ATCC 25922, E. coli M15, Pseudomonas aeruginosa ATCC 27853, S. aureus ATCC 25923 were provided by Dr. Elena Ermolenko (Institute of Experimental Medicine, St-Petersburg, Russia); drug-resistant clinical isolates were provided by Prof. Gennadiy Afinogenov (Saint Petersburg State University, Russia); S. aureus 710A has been described previously. The following clinical isolates of bacteria were used: P.s aeruginosa resistant to aztreonam, ceftazidime, cefotaxime (obtained from the urine of a patient with cystitis), Acinetobacter baumannii resistant to meropenem (from an infected wound); Staphylococcus intermedius (from an infected wound caused by a dog bite) resistant to ciprofloxacin, cefuroxime, clindamycin, erythromycin, rifampin, gentamicin, benzylpenicillin, oxacillin.
# (§2) This assay was applied to determine the MIC, according to the guidelines of the Clinical and Laboratory Standards Institute, using Mueller Hinton (MH) Broth. We prepared 2x stocks of peptides and serially diluted them in sterile PBS instead of Mueller Hinton Broth, so that the treatment of the bacteria with the peptides was carried out in a medium containing 50% of MH and 50% of PBS, as described. The overnight cultures of each strain were transferred to fresh MH media and further incubated to obtain a mid-logarithmic-growth-phase culture of bacteria. The absorbance of each bacterial suspension was measured at 620 nm, and bacteria were then diluted to approximately 2 × 10^5 CFU/mL. Then, 50 µL of the suspensions were mixed with 50 µL of the peptide dilutions in the wells of a microtiter plate (pre-treated for 1 h at 37 °C with 0.2% bovine serum albumin (BSA) in water, sterilized by filtration, to diminish the non-specific binding of the peptides to the plastic surfaces).
# E. coli M15 = format: cell-based, Escherichia coli; conditions: M15, 18 h
# Excerpt: as §1, §2
# Escherichia coli ML35p = format: cell-based; conditions: broth microdilution, 50% Mueller Hinton broth / 50% PBS, 18 h at 37 °C, median of 3–5 experiments in triplicates
# Excerpt: as §1, §2
# [1] = tested on: Listeria monocytogenes EGD; format: cell-based; conditions: 18 h
# Excerpt: as §1, §2
# [2] = tested on: Pseudomonas aeruginosa ATCC 27853; format: cell-based; conditions: ATCC 27853, 18 h
# Excerpt: as §1, §2
# [3] = tested on: Staphylococcus aureus 710A; format: cell-based; conditions: 18 h
# Excerpt: as §1, §2
# MRSA ATCC 33591 = format: cell-based, Staphylococcus aureus; conditions: ATCC 33591, 18 h
# Excerpt: as §1, §2
# S. aureus ATCC 25923 = format: cell-based, Staphylococcus aureus; conditions: ATCC 25923, 18 h
# Excerpt: as §1, §2
# S. aureus c.i. = format: cell-based, Staphylococcus aureus; conditions: 18 h
# Excerpt: as §1, §2
# P. aeruginosa c.i. = format: cell-based, Pseudomonas aeruginosa; conditions: 18 h
# Excerpt: as §1, §2
# [4] = tested on: Acinetobacter baumanii c.i.; format: cell-based, Acinetobacter baumannii; conditions: 18 h
# Excerpt: as §1, §2
# [5] = tested on: Staphylococcus intermidius; format: cell-based, Staphylococcus intermedius; conditions: 18 h
# Excerpt: as §1, §2
# [6] = tested on: set of Gram-negative and Gram-positive bacteria, including drug-resistant clinical isolates; format: cell-based; conditions: 12 strains; median MICs used; MIC > 16 µM taken as 32 µM
# Procedure: To obtain a global assessment of the effect on antimicrobial activity, the geometric mean of the MIC (G-MIC) was calculated, and from this, the overall improvement or impoverishment with respect to arenicin-1. In general, inverting the symmetry or decreasing the charge had detrimental effects.
# The overall activity against a set of tested bacterial strains was determined by way of the commonly used geometric mean of measured MIC values. […] At the same time, the geometric mean can still discriminate antimicrobial agents showing minor variations in activity; in other words, it has a better “resolution” than the median MIC (MIC50). Some mathematical basics for choosing the geometric mean for antimicrobial activity comparison are further discussed in the Supplementary Chapter S3.
# [7] = tested on: human erythroleukemia K-562 cells; format: cell-based; conditions: 24 h
# Procedure: The standard MTT ((3-(4,5-Dimethylthiazol-2-yl)-2,5-diphenyltetrazolium bromide) test was used for the examination of the cytotoxic activity of AMPs towards human erithroleukemia cells K-562. The cells were purchased from Biolot (Saint Petersburg, Russia) and were grown in RPMI 1640 medium (Biolot, Saint Petersburg, Russia) supplemented with glutamine and 10% FCS. Before the experiment, the culturing medium was replaced with serum-free RPMI 1640. Serial dilutions of the peptides in RPMI were plated in sterile 96-well microplates, and the target cells were dispensed to the microplates (10^5 cells/well in RPMI 1640). The plates were incubated for 24 h at 37 °C under 5% CO2. Cell-free media and cells incubated without peptides served as controls. Four hours before the incubation ended, MTT in PBS (5 mg/mL) was added to each well. After the incubation was stopped by adding isopropanol/ 0.04 M HCl, the optical density was measured at 540 nm, subtracting the background absorbance at 690 nm. Toxicity was determined by nonlinear regression analysis of the corresponding dose–response curves using the Sigma Plot 11 program to calculate the IC50 values (the concentration of the test substance that reduced the OD540 capacity by 50%).
SMILES,Minimal Inhibitory Concentrations (MIC) (E. coli ATCC 25922),Minimal Inhibitory Concentrations (MIC) (E. coli M15),Minimal Inhibitory Concentrations (MIC) (Escherichia coli ML35p),Minimal Inhibitory Concentrations (MIC) [1],Minimal Inhibitory Concentrations (MIC) [2],Minimal Inhibitory Concentrations (MIC) [3],Minimal Inhibitory Concentrations (MIC) (MRSA ATCC 33591),Minimal Inhibitory Concentrations (MIC) (S. aureus ATCC 25923),Minimal Inhibitory Concentrations (MIC) (S. aureus c.i.),Minimal Inhibitory Concentrations (MIC) (P. aeruginosa c.i.),Minimal Inhibitory Concentrations (MIC) [4],Minimal Inhibitory Concentrations (MIC) [5],G-MIC (geometric mean of all determined MICs) [6],IC50 [7]
"CC(C)C[C@@H]1NC(=O)[C@H](C(C)C)NC(=O)CNC(=O)[C@H](CCCNC(=N)N)NC(=O)[C@H](C(C)C)NC(=O)[C@H](CCCNC(=N)N)NC(=O)[C@H](C(C)C)NC(=O)[C@H](Cc2ccc(O)cc2)NC(=O)[C@H](C)NC(=O)[C@H](Cc2ccc(O)cc2)NC(=O)[C@H](C(C)C)NC(=O)[C@@H](NC(=O)[C@H](Cc2c[nH]c3ccccc23)NC(=O)[C@@H](N)CCCNC(=N)N)CSSC[C@@H](C(=O)N[C@@H](Cc2c[nH]c3ccccc23)C(=O)O)NC(=O)[C@H](CCCNC(=N)N)NC(=O)[C@H](CCCNC(=N)N)NC(=O)[C@H](Cc2ccc(O)cc2)NC(=O)[C@H](CCCNC(=N)N)NC(=O)[C@H](C(C)C)NC1=O [AR, Arenicin-1] (HELM PEPTIDE1{R.W.C.V.Y.A.Y.V.R.V.R.G.V.L.V.R.Y.R.R.C.W}$PEPTIDE1,PEPTIDE1,3:R3-20:R3$$$V2.0)",2 µM,2 µM,1 to 2 µM,1 to 2 µM,2 µM,2 µM,4 µM,2 µM,4 µM,4 µM,4 µM,8 µM,2.7 µM,17.9 µM
"CC(C)C[C@@H]1NC(=O)[C@H](C(C)C)NC(=O)CNC(=O)[C@H](CCCNC(=N)N)NC(=O)[C@H](C(C)C)NC(=O)[C@H](CCCNC(=N)N)NC(=O)[C@H](C(C)C)NC(=O)[C@H](Cc2ccc(O)cc2)NC(=O)[C@H](C)NC(=O)[C@H](Cc2ccc(O)cc2)NC(=O)[C@H](C(C)C)NC(=O)[C@@H](NC(=O)[C@H](Cc2ccccc2)NC(=O)[C@@H](N)CCCNC(=N)N)CSSC[C@@H](C(=O)N[C@@H](Cc2ccccc2)C(=O)O)NC(=O)[C@H](CCCNC(=N)N)NC(=O)[C@H](CCCNC(=N)N)NC(=O)[C@H](Cc2ccc(O)cc2)NC(=O)[C@H](CCCNC(=N)N)NC(=O)[C@H](C(C)C)NC1=O [AR-F] (HELM PEPTIDE1{R.F.C.V.Y.A.Y.V.R.V.R.G.V.L.V.R.Y.R.R.C.F}$PEPTIDE1,PEPTIDE1,3:R3-20:R3$$$V2.0; N-terminus and C-terminus assumed)",1 µM,1 µM,1 µM,2 µM,1 µM,2 µM,2 µM,2 µM,4 µM,2 µM,2 µM,4 µM,1.8 µM,9.3 µM

# — PMC6627698, “Redesigning Arenicin-1, an Antimicrobial Peptide from the Marine Polychaeta Arenicola marina, by Strand Rearrangement or Branching, Substitution of Specific Residues, and Backbone Linearization or Cyclization” (Marine Drugs, 2019)
